Test results published in ChEMBL document CHEMBL4028801, “A multifactorial approach to hepatobiliary transporter assessment enables improved therapeutic compound development” (Toxicol Sci, 2013).

Legend:
Bile salt export pump = Bile salt export pump (Homo sapiens, UniProt O95342); experiment: Inhibition of human BSEP overexpressed in Sf9 cell membrane vesicles assessed as uptake of [3H]-taurocholate in presence of ATP measured after 15 to 20 mins by membrane vesicle transport assay; type: ADME, cell-based
Bile salt export pump, sequence (O95342 whole entry): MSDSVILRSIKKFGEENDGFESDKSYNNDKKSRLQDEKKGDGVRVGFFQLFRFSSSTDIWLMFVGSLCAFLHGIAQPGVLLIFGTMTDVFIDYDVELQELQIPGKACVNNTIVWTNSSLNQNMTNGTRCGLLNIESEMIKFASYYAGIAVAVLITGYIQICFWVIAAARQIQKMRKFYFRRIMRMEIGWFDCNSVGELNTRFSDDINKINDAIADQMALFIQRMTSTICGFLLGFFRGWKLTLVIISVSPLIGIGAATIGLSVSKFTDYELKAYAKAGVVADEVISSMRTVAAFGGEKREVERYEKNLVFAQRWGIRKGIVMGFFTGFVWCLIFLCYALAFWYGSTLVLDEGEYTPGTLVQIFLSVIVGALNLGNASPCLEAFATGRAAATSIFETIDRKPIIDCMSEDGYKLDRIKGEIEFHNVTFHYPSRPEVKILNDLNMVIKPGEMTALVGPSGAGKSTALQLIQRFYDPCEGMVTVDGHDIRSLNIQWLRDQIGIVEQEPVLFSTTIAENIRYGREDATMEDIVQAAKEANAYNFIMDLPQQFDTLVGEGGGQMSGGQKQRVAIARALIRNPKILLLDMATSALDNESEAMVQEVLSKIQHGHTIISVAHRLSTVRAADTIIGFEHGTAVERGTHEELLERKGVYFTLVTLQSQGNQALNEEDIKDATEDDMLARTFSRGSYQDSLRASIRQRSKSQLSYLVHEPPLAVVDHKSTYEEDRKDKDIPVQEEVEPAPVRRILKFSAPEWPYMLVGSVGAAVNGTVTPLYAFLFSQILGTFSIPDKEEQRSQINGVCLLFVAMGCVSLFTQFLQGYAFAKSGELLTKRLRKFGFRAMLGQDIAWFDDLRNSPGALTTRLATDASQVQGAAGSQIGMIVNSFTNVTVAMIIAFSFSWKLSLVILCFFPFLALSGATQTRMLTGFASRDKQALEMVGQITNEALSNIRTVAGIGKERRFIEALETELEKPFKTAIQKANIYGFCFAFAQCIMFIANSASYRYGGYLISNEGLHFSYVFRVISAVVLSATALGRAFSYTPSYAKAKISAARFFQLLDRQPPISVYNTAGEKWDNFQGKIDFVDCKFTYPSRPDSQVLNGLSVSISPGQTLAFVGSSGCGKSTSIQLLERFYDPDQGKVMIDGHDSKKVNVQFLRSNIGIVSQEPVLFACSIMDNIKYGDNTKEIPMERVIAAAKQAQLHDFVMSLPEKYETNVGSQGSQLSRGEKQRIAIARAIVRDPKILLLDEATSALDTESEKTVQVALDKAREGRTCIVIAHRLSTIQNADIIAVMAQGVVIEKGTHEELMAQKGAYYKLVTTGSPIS

[1] = target: ATP-binding cassette sub-family C member 3 (Homo sapiens, UniProt O15438); experiment: Inhibition of human MRP3 overexpressed in Sf9 insect cell membrane vesicles assessed as uptake of [3H]-estradiol-17beta-D-glucuronide in presence of ATP and GSH measured after 10 mins by membrane vesicle transport assay; type: ADME, cell-based
ATP-binding cassette sub-family C member 3, sequence (O15438 whole entry): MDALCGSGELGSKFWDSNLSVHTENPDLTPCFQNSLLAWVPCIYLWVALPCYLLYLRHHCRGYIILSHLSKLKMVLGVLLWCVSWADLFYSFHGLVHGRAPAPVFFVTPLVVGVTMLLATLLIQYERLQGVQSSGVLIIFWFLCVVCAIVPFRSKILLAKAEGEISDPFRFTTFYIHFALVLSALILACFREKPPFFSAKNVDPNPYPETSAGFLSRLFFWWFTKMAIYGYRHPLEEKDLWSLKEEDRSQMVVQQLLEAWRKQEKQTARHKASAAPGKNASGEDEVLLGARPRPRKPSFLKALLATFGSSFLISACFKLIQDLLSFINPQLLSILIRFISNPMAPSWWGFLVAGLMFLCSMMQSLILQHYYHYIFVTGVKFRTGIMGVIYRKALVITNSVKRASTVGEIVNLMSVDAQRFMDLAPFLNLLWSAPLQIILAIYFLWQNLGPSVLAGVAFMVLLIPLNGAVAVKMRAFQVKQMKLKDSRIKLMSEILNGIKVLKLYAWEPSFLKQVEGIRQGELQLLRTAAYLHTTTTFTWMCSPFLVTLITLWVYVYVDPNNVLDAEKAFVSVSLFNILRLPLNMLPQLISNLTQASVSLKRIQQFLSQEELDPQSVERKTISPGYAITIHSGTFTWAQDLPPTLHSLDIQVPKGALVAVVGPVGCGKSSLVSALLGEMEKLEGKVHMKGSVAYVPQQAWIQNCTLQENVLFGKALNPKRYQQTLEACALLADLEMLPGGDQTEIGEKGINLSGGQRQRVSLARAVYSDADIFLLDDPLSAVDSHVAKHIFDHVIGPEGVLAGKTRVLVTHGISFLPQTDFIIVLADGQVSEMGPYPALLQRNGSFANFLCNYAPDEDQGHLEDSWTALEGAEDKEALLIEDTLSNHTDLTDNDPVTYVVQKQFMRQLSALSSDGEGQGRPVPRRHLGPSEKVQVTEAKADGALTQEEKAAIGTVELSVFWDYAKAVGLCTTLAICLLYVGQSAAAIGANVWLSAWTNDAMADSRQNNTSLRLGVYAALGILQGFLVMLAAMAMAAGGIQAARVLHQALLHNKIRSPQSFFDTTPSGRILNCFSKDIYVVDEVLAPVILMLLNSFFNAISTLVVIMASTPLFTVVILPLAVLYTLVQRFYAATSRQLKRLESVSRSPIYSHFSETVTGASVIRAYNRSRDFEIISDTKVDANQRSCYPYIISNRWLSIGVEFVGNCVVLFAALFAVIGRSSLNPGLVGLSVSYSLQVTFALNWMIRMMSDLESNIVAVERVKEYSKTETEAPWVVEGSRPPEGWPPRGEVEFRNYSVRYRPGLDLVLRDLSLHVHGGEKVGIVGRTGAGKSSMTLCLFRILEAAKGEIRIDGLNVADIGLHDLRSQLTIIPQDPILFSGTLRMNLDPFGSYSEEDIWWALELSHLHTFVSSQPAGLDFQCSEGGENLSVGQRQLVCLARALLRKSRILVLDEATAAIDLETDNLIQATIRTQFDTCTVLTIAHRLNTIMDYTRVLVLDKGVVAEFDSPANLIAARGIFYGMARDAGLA

[2] = target: ATP-binding cassette sub-family C member 2 (Homo sapiens, UniProt Q92887); experiment: Inhibition of human MRP2 overexpressed in Sf9 cell membrane vesicles assessed as uptake of [3H]-estradiol-17beta-D-glucuronide in presence of ATP and GSH measured after 20 mins by membrane vesicle transport assay
ATP-binding cassette sub-family C member 2, sequence (Q92887 whole entry): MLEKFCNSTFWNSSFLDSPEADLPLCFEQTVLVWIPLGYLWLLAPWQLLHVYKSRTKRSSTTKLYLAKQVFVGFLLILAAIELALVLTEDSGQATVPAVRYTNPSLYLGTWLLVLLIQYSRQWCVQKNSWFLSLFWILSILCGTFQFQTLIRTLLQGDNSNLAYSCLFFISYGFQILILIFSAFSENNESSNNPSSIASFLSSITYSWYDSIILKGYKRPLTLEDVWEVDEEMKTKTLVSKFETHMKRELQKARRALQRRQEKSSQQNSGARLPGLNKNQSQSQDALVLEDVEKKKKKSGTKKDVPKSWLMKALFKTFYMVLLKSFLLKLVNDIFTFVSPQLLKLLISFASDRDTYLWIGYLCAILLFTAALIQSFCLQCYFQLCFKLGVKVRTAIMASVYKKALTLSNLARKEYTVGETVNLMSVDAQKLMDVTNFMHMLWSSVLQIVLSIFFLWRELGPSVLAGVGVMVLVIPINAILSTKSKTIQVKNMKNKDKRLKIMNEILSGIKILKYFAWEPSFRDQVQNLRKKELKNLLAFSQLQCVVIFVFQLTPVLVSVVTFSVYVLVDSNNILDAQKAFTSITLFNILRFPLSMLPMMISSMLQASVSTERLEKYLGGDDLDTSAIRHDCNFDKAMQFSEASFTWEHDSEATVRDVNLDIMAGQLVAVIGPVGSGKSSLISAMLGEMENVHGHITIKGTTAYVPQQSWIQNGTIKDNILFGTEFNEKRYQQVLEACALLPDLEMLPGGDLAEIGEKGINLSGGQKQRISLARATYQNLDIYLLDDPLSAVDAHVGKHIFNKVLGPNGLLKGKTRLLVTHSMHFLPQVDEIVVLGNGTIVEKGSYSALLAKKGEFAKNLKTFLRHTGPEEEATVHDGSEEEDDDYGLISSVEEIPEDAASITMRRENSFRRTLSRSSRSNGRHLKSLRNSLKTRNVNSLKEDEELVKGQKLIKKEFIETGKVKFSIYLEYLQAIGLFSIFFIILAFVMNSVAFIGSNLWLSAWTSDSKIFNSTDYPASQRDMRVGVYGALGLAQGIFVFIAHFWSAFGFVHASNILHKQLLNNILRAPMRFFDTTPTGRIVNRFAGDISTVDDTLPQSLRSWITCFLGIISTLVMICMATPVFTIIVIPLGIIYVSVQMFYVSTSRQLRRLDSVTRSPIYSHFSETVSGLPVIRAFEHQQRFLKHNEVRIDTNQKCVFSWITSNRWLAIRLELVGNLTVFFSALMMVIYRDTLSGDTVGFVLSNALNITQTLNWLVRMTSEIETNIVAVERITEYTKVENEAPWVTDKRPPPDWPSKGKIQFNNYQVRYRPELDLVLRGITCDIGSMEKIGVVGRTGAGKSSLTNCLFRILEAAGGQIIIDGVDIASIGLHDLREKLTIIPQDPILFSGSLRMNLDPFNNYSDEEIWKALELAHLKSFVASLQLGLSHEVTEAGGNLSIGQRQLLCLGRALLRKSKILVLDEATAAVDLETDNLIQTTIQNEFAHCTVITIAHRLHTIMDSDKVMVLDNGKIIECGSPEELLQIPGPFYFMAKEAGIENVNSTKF

[3] = target: T1, ATP-binding cassette sub-family C member 4 (Homo sapiens, UniProt O15439); experiment: Inhibition of human MRP4 overexpressed in Sf9 cell membrane vesicles assessed as uptake of [3H]-estradiol-17beta-D-glucuronide in presence of ATP and GSH measured after 20 mins by membrane vesicle transport assay; type: ADME, cell-based
T1 sequence (O15439 whole entry): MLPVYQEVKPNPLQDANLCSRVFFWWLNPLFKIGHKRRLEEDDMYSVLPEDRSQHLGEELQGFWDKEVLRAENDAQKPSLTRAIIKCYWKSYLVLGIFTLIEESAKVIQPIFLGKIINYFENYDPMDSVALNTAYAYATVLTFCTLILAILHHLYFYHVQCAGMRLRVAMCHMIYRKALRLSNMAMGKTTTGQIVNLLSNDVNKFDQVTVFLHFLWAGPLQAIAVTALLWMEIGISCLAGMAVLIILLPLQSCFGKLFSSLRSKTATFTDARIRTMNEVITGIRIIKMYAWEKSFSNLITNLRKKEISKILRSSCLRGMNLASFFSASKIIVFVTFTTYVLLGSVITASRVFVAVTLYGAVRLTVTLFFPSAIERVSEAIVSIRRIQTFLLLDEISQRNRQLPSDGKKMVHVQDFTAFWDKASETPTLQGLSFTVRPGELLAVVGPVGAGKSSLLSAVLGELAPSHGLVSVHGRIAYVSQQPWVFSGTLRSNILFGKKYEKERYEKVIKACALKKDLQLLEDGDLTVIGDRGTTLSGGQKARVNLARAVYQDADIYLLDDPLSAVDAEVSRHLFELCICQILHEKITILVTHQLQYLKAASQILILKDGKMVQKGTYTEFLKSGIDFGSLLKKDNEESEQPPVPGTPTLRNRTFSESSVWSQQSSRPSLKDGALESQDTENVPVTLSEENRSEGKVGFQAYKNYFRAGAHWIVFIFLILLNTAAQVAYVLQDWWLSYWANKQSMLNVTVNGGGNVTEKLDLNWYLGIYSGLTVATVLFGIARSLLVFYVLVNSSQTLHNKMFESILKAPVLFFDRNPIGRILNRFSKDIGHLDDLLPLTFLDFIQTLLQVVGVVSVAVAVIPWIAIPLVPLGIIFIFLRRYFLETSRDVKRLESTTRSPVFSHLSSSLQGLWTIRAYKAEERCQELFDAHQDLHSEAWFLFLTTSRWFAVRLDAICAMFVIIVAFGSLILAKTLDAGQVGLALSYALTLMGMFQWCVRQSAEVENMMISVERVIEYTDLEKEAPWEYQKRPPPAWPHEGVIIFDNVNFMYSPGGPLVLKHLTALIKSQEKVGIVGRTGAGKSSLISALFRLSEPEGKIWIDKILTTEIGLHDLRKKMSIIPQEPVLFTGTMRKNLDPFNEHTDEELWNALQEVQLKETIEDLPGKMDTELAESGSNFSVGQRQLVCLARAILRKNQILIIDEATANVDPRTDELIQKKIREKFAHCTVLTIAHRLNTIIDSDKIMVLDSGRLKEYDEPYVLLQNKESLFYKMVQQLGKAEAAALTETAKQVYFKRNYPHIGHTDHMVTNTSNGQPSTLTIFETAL

Structure (SMILES) | IC50 (Bile salt export pump) [µM] | IC50 [1] [µM] | IC50 [2] [µM] | IC50 [3] [µM]
CCOC(=O)c1ccc(N)cc1 [BENZOCAINE] | > 133 | > 133 | > 133 | > 133
O=NN(CCCl)C(=O)NC1CCCCC1 [LOMUSTINE] | > 133 | > 133 | > 133 | > 133
CN1CCN(C2=Nc3cc(Cl)ccc3Nc3ccccc32)CC1 [CLOZAPINE] | > 133 | > 133 | > 133 | > 133
CCOC(=O)c1ccc(C#Cc2ccc3c(c2)C(C)(C)CCS3)nc1 [TAZAROTENE] | > 133 | > 133 | > 133 | > 133
CN(C(=O)c1c(O)c2ccccc2n(C)c1=O)c1ccccc1 [ROQUINIMEX] | > 133 | > 133 | > 133 | > 133
OCCN1CCN(CCCN2c3ccccc3Sc3ccc(Cl)cc32)CC1 [PERPHENAZINE] | > 133 | > 133 | > 133 | > 133
O=C(O)CCNC(=O)c1ccccc1 [BETAMIPRON] | > 133 | > 133 | > 133 | > 133
CC(C)C[C@H](NC(=O)[C@H](Cc1ccccc1)NC(=O)c1cnccn1)B(O)O [BORTEZOMIB] | > 133 | > 133 | > 133 | > 133
CO/N=C(\C(=O)N[C@@H]1C(=O)N2C(C(=O)O)=C(COC(C)=O)CS[C@H]12)c1csc(N)n1 [CEFOTAXIME SODIUM] | > 133 | > 133 | > 133 | 24
CCC(=O)NCC[C@@H]1CCc2ccc3c(c21)CCO3 [RAMELTEON] | > 133 | > 133 | > 133 | > 133
O=c1c(O)c(-c2ccc(O)c(O)c2)oc2cc(O)cc(O)c12 [QUERCETIN] | > 133 | > 133 | > 133 | 20.8
CC(C)[C@H]1CC[C@H](C(=O)N[C@H](Cc2ccccc2)C(=O)O)CC1 [NATEGLINIDE] | > 133 | 104 | > 133 | > 133
CCN(CC)CCNC(=O)c1cc(Br)c(N)cc1OC [BROMOPRIDE] | > 133 | > 133 | > 133 | > 133
CC[C@H]1OC(=O)[C@H](C)[C@@H](O[C@H]2C[C@@](C)(OC)[C@@H](O)[C@H](C)O2)[C@H](C)[C@@H](O[C@@H]2O[C@H](C)C[C@H](N(C)C)[C@H]2O)[C@](C)(O)C[C@@H](C)/C(=N\OCOCCOC)[C@H](C)[C@@H](O)[C@]1(C)O [ROXITHROMYCIN] | > 133 | > 133 | > 133 | > 133
CC(C)(C)c1ccc(C(=O)CCCN2CCC(OC(c3ccccc3)c3ccccc3)CC2)cc1 [EBASTINE] | > 133 | > 133 | > 133 | > 133
COc1nc(N)nc2c1ncn2[C@@H]1O[C@H](CO)[C@@H](O)[C@@H]1O [NELARABINE] | > 133 | > 133 | > 133 | > 133
CN1CCOC(c2ccccc2)c2ccccc2C1 (stereo not drawn) [NEFOPAM] | > 133 | > 133 | > 133 | > 133
COc1ccc(-c2ccc3cc(C(=O)O)ccc3c2)cc1C12CC3CC(CC(C3)C1)C2 | > 133 | > 133 | > 133 | > 133
Cn1c(=O)c2[nH]cnc2n(C)c1=O [AMINOPHYLLINE] | > 133 | > 133 | > 133 | 131

Structure (SMILES) | IC50 (Bile salt export pump) [µM] | IC50 [1] [µM] | IC50 [2] [µM] | IC50 [3] [µM]
Clc1ccc(CO/N=C(\Cn2ccnc2)c2ccc(Cl)cc2Cl)c(Cl)c1 [OXICONAZOLE NITRATE] | 49.3 | > 133 | > 133 | > 133
C=C[C@H]1C[N@@]2CC[C@H]1C[C@H]2[C@H](O)c1ccnc2ccc(OC)cc12 [QUININE] | > 133 | > 133 | > 133 | > 133
C[C@H]1[C@H](OC(=O)CCC(=O)O)O[C@@H]2O[C@@]3(C)CC[C@H]4[C@H](C)CC[C@@H]1[C@@]24OO3 [ARTESUNATE] | > 133 | > 133 | > 133 | > 133
Cc1noc(NS(=O)(=O)c2ccc(N)cc2)c1C [SULFISOXAZOLE] | > 133 | > 133 | > 133 | > 133
CCCCc1ncc(/C=C(\Cc2cccs2)C(=O)O)n1Cc1ccc(C(=O)O)cc1 [EPROSARTAN] | > 133 | 6.65 | 57.9 | > 133
C[C@H]1C[C@@H]2[C@H]([C@@H](O)C[C@@]3(C)[C@H]2CC[C@]3(O)C(=O)CO)[C@@]2(C)C=CC(=O)C=C12 [METHYLPREDNISOLONE] | > 133 | > 133 | > 133 | 41
COc1cc([C@@H]2c3cc4c(cc3[C@@H](O[C@@H]3O[C@@H]5CO[C@@H](C)O[C@H]5[C@H](O)[C@H]3O)[C@H]3COC(=O)[C@H]23)OCO4)cc(OC)c1OP(=O)(O)O [ETOPOSIDE PHOSPHATE] | > 133 | > 133 | > 133 | > 133
CC(=O)O[C@H]1C[C@@H]2CC[C@@H]3[C@H](CC[C@@]4(C)[C@H]3C[C@H]([N+]3(C)CCCCC3)[C@@H]4OC(C)=O)[C@@]2(C)C[C@@H]1[N+]1(C)CCCCC1 [PANCURONIUM BROMIDE] | > 133 | > 133 | > 133 | > 133
NC(=O)CN1CCCC1=O | > 133 | > 133 | > 133 | > 133
CN(Cc1cnc2nc(N)nc(N)c2n1)c1ccc(C(=O)N[C@@H](CCC(=O)O)C(=O)O)cc1 [METHOTREXATE] | > 133 | > 133 | > 133 | > 133
NC(=O)c1ncn([C@@H]2O[C@H](CO)[C@@H](O)[C@H]2O)c1O [MIZORIBINE] | > 133 | > 133 | > 133 | > 133
NCC(CC(=O)O)c1ccc(Cl)cc1 (stereo not drawn) [BACLOFEN] | > 133 | > 133 | > 133 | > 133
CC[C@H]1OC(=O)[C@H](C)[C@@H](O[C@H]2C[C@@](C)(OC)[C@@H](O)[C@H](C)O2)[C@H](C)[C@@H](O[C@@H]2O[C@H](C)C[C@H](N(C)C)[C@H]2O)[C@](C)(O)C[C@@H](C)CN(C)[C@H](C)[C@@H](O)[C@]1(C)O [AZITHROMYCIN] | > 133 | > 133 | > 133 | > 133
N#C[C@@H]1CCCN1C(=O)CNC12CC3CC(CC(O)(C3)C1)C2 [VILDAGLIPTIN] | > 133 | > 133 | > 133 | > 133
CC(C)N(CCC(C(N)=O)(c1ccccc1)c1ccccn1)C(C)C (stereo not drawn) [DISOPYRAMIDE] | > 133 | > 133 | > 133 | > 133
c1cnc2cc3c(cc2n1)[C@@H]1CNC[C@H]3C1 | > 133 | > 133 | > 133 | > 133
Nc1nc2ccc(OC(F)(F)F)cc2s1 [RILUZOLE] | > 133 | > 133 | > 133 | > 133
CCCc1cc(=O)[nH]c(=S)[nH]1 [PROPYLTHIOURACIL] | > 133 | > 133 | > 133 | > 133
